From PubChem BioAssay AID330 (DTP/NCI, 2004)
Values joined by “and” are separate entries in the source; they are usually repeats but may differ in a detail not shown here. Identical values can stand only once. Toxic doses and inconclusive results are not listed. The calls were made as follows: active = survival T/C of 150% or more; inactive = T/C below 125% in these data. Numbered stars: 1 amine (or outer) side, 2 acyl side, 3 side chain; on linkers, the order of the positions; unused ones are H or OH. Bridge positions count the residues as written; N and C are the ends. Square brackets hold non-standard residues; d marks the D form. Peptide text beside a SMILES is read from it. I, II: the chains in the order shown. * marks the point of attachment. ξ: configuration not given here. Quinaldoyl(3-OH,6-OMe) = COc1ccc2nc(C(=O)*)c(O)cc2c1; X8 = CC(=O)OC1CC=NN([*:1])C1C(=O)[*:2]; ξNMeVal(3-OH) = CNC(C(=O)O)C(C)(C)O; X7 = O=C(C1C(O)CC=NN1[*:1])[*:2]; Sar = CNCC(=O)O

Test system: P388 leukemia ip, CD2F1 mice, survival T/C
Assay: NCI In Vivo Anticancer Drug Screen. Data for tumor model P388 Leukemia (intraperitoneal) in CD2F1 (CDF1) mice
Settings: endpoint: median survival time, higher = longer survival
In short: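 Mice carrying the transplanted tumor received test compound or vehicle. Survival was recorded in each group, and the value is the treated-group measurement divided by that of the vehicle-treated control group.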

[1] = dose: 100.0 mg/kg/injection, schedule: Q01DX009 (ip), vehicle: Klucel (hydroxypropylcellulose) (HPC)
[2] = dose: 200.0 mg/kg/injection, schedule: Q01DX009 (ip), vehicle: Klucel (hydroxypropylcellulose) (HPC)
[3] = dose: 60.0 mg/kg/injection, schedule: Q01DX005 (ip), vehicle: saline with Tween-80
[4] = dose: 120.0 mg/kg/injection, schedule: Q01DX005 (ip), vehicle: saline with Tween-80
[5] = dose: 240.0 mg/kg/injection, schedule: Q01DX005 (ip), vehicle: saline with Tween-80
[6] = dose: 100.0 mg/kg/injection, schedule: Q01DX009 (ip), vehicle: saline
[7] = dose: 50.0 mg/kg/injection, schedule: Q01DX009 (ip), vehicle: Klucel (hydroxypropylcellulose) (HPC)
[8] = dose: 50.0 mg/kg/injection, schedule: Q01DX009 (ip), vehicle: saline with Tween-80
[9] = dose: 100.0 mg/kg/injection, schedule: Q01DX009 (ip), vehicle: saline with Tween-80
[10] = dose: 200.0 mg/kg/injection, schedule: Q01DX009 (ip), vehicle: saline with Tween-80
[11] = dose: 100.0 mg/kg/injection, schedule: Q01DX001 (ip), vehicle: Klucel (hydroxypropylcellulose) (HPC)
[12] = dose: 200.0 mg/kg/injection, schedule: Q01DX001 (ip), vehicle: Klucel (hydroxypropylcellulose) (HPC)
[13] = dose: 400.0 mg/kg/injection, schedule: Q01DX001 (ip), vehicle: Klucel (hydroxypropylcellulose) (HPC)
[14] = dose: 50.0 mg/kg/injection, schedule: Q01DX005 (ip), vehicle: saline with Tween-80
[15] = dose: 100.0 mg/kg/injection, schedule: Q01DX005 (ip), vehicle: saline with Tween-80
[16] = dose: 200.0 mg/kg/injection, schedule: Q01DX005 (ip), vehicle: saline with Tween-80
[17] = dose: 100.0 mg/kg/injection, schedule: Q04DX002 (ip), vehicle: saline with Tween-80
[18] = dose: 200.0 mg/kg/injection, schedule: Q04DX002 (ip), vehicle: saline with Tween-80
[19] = dose: 400.0 mg/kg/injection, schedule: Q04DX002 (ip), vehicle: saline with Tween-80

Measured: T/C

NC(=O)C1CCCC12NC(=O)NC2=O (stereo not given)
inactive: [1] 90 % of control | [2] 90 % of control | dose: 400.0 mg/kg/injection, schedule: Q01DX009 (ip), vehicle: Klucel (hydroxypropylcellulose) (HPC) 100 % of control

CC(=O)OC1C(=O)C=C(C)OC1=O (stereo not given)
inactive: [3] 102 % of control | [4] 99 % of control | [5] 106 % of control

COc1cc(-c2ccc(N=Nc3c(O)ccc4ccccc34)c(OC)c2)ccc1N=Nc1ccc2c(S(=O)(=O)O)cc(S(=O)(=O)O)c(N)c2c1O
inactive: dose: 66.0 mg/kg/injection, schedule: Q01DX009 (ip), vehicle: saline 102 % of control | [6] 118 % of control | dose: 150.0 mg/kg/injection, schedule: Q01DX009 (ip), vehicle: saline 114 % of control

O=C1OCC2C(=O)OCC12 (stereo not given)
inactive: dose: 4.0 mg/kg/injection, schedule: Q01DX009 (ip), vehicle: saline with Tween-80 113 % of control and 87 % of control | dose: 8.0 mg/kg/injection, schedule: Q01DX009 (ip), vehicle: saline with Tween-80 108 % of control and 109 % of control and 96 % of control | dose: 16.0 mg/kg/injection, schedule: Q01DX009 (ip), vehicle: saline with Tween-80 100 % of control and 109 % of control and 118 % of control | dose: 32.0 mg/kg/injection, schedule: Q01DX009 (ip), vehicle: saline with Tween-80 104 % of control and 124 % of control and 95 % of control | dose: 50.0 mg/kg/injection, schedule: Q04DX003 (ip), vehicle: saline with Tween-80 99 % of control | dose: 64.0 mg/kg/injection, schedule: Q01DX009 (ip), vehicle: saline with Tween-80 100 % of control and 109 % of control and 124 % of control | dose: 100.0 mg/kg/injection, schedule: Q04DX003 (ip), vehicle: saline with Tween-80 102 % of control | dose: 128.0 mg/kg/injection, schedule: Q01DX009 (ip), vehicle: saline with Tween-80 113 % of control | dose: 200.0 mg/kg/injection, schedule: Q04DX003 (ip), vehicle: saline with Tween-80 105 % of control | dose: 400.0 mg/kg/injection, schedule: Q04DX003 (ip), vehicle: saline with Tween-80 99 % of control

COC(=O)c1ccccc1NC(=O)Nc1ncccn1
inactive: [7] 100 % of control | [1] 100 % of control | [2] 96 % of control

COc1ccc2nc(C(=O)NC3COC(=O)C(C(C)(C)O)N(C)C(=O)CN(C)C(=O)CNC(=O)C4C(OC(C)=O)CC=NN4C(=O)C(NC(=O)c4nc5ccc(OC)cc5cc4O)COC(=O)C(C(C)(C)O)N(C)C(=O)CN(C)C(=O)CNC(=O)C4C(O)CC=NN4C3=O)c(O)cc2c1 (stereo not given) (I: {Quinaldoyl(3-OH,6-OMe)}-S[X7]G[Sar][ξNMeVal(3-OH)] / II: {Quinaldoyl(3-OH,6-OMe)}-S[X8]G[Sar][ξNMeVal(3-OH)]; ester I:1-II:C, I:C-II:1; configuration not given here)
inactive: dose: 6.25 micrograms/kg/injection, schedule: Q01DX005 (ip), vehicle: DMSO 108 % of control | dose: 12.5 micrograms/kg/injection, schedule: Q01DX005 (ip), vehicle: DMSO 112 % of control | dose: 25.0 micrograms/kg/injection, schedule: Q01DX005 (ip), vehicle: DMSO 118 % of control | dose: 50.0 micrograms/kg/injection, schedule: Q01DX005 (ip), vehicle: DMSO 119 % of control | dose: 100.0 micrograms/kg/injection, schedule: Q01DX005 (ip), vehicle: DMSO 123 % of control

Cc1ccc(S(=O)(=O)OCC2OC(OC3(CO)OC(COS(=O)(=O)c4ccc(C)cc4)C(O)C3O)C(O)C(O)C2O)cc1 (stereo not given)
inactive: [8] 100 % of control | [9] 98 % of control | [10] 99 % of control

O=C1OC(c2ccc([N+](=O)[O-])cc2)=N/C1=C\c1ccc(Cl)cc1
inactive: dose: 3.13 mg/kg/injection, schedule: Q01DX009 (ip), vehicle: Klucel (hydroxypropylcellulose) (HPC) 115 % of control | dose: 6.25 mg/kg/injection, schedule: Q01DX009 (ip), vehicle: Klucel (hydroxypropylcellulose) (HPC) 115 % of control | dose: 12.5 mg/kg/injection, schedule: Q01DX009 (ip), vehicle: Klucel (hydroxypropylcellulose) (HPC) 105 % of control and 88 % of control | dose: 25.0 mg/kg/injection, schedule: Q01DX009 (ip), vehicle: Klucel (hydroxypropylcellulose) (HPC) 88 % of control

CCC1(C(=O)OC)CCc2c(cc(OC)c3ccccc23)C1=O (stereo not given)
inactive: dose: 50.0 mg/kg/injection, schedule: Q01DX005 (ip), vehicle: Klucel (hydroxypropylcellulose) (HPC) 87 % of control | dose: 100.0 mg/kg/injection, schedule: Q01DX005 (ip), vehicle: Klucel (hydroxypropylcellulose) (HPC) 87 % of control | dose: 200.0 mg/kg/injection, schedule: Q01DX005 (ip), vehicle: Klucel (hydroxypropylcellulose) (HPC) 89 % of control

CCCCCCCCC(=O)OCCN(CCOC(=O)CCCCCCCC)C(=O)COC(=O)CCCCCCCC
inactive: [7] 102 % of control | [1] 113 % of control | [2] 93 % of control

Cc1nn2c(-c3snnc3C)nnc2s1
inactive: [11] 99 % of control | [12] 100 % of control | [13] 100 % of control

CCC1(CCC(C)C)C(=O)N(CCCl)C(=O)N(CCCl)C1=O
inactive: [8] 100 % of control | [9] 105 % of control | [10] 96 % of control

Nc1nc(N)c2nc(C(=O)c3ccccc3)c(-c3ccccc3)nc2n1
inactive: [8] 92 % of control | [9] 97 % of control | [10] 90 % of control

CCOC(c1ccc(OC)cc1)c1cc(C(C)(C)C)cc(C(C)(C)C)c1O (stereo not given)
inactive: dose: 50.0 mg/kg/injection, schedule: Q01DX005 (ip), vehicle: distilled water + alcohol 103 % of control | dose: 100.0 mg/kg/injection, schedule: Q01DX005 (ip), vehicle: distilled water + alcohol 105 % of control | dose: 200.0 mg/kg/injection, schedule: Q01DX005 (ip), vehicle: distilled water + alcohol 107 % of control

CC(C)(C)OC(=O)NC(N)=NCCCC(NC(=O)OC(C)(C)C)C(=O)O (stereo not given)
inactive: [14] 100 % of control | [15] 103 % of control | [16] 102 % of control

COc1ccc(-c2nc3[nH]c(=S)[nH]c(=O)c3nc2-c2ccc(OC)c(OC)c2)cc1OC
inactive: [11] 103 % of control | [12] 105 % of control | [13] 90 % of control

C1CCSCCCCCSCCCCCSCCCCCSCC1
inactive: [7] 97 % of control | [1] 96 % of control | [2] 94 % of control

Cc1cc(C)c2ccc(C)c(N)c2n1
inactive: [14] 99 % of control | [15] 92 % of control | [16] 99 % of control

CC1=CC(C)=NC2NNC(=O)C12 (stereo not given)
inactive: [3] 110 % of control | [4] 109 % of control | [5] 105 % of control

O=CN(O)CC(=O)O
inactive: [8] 95 % of control | dose: 50.0 mg/kg/injection, schedule: Q04DX003 (ip), vehicle: saline sonified 104 % of control | [9] 104 % of control | [6] 100 % of control | dose: 100.0 mg/kg/injection, schedule: Q04DX003 (ip), vehicle: saline sonified 100 % of control | dose: 100.0 mg/kg/injection, schedule: Q04DX003 (ip), vehicle: saline 100 % of control | [10] 95 % of control | dose: 200.0 mg/kg/injection, schedule: Q01DX009 (ip), vehicle: saline 109 % of control | dose: 200.0 mg/kg/injection, schedule: Q04DX003 (ip), vehicle: saline sonified 100 % of control | dose: 200.0 mg/kg/injection, schedule: Q04DX003 (ip), vehicle: saline 108 % of control | dose: 400.0 mg/kg/injection, schedule: Q01DX009 (ip), vehicle: saline with Tween-80 100 % of control | dose: 400.0 mg/kg/injection, schedule: Q01DX009 (ip), vehicle: saline 100 % of control | dose: 400.0 mg/kg/injection, schedule: Q04DX003 (ip), vehicle: saline sonified 100 % of control | dose: 400.0 mg/kg/injection, schedule: Q04DX003 (ip), vehicle: saline 91 % of control

COc1cc(-c2n[nH]c(=O)o2)cc(OC)c1OC
inactive: [7] 105 % of control | [1] 100 % of control | [2] 105 % of control

O=C(O)CCc1ccccc1Br
inactive: [17] 101 % of control | [18] 95 % of control | [19] 100 % of control

CSC1(SC2=NCCN2)SC2(NCCN2)S1
inactive: [12] 86 % of control | [13] 90 % of control

c1ccc(-c2[s+]ccc3ccccc23)cc1
inactive: [7] 115 % of control | [1] 118 % of control | [2] 117 % of control

COc1ccc2c(c1)NC(c1ccc(C(N)=S)cc1)N2 (stereo not given)
inactive: [17] 89 % of control | [18] 87 % of control | [19] 88 % of control
